Reference: patent US8486968B2, “Compounds” (Boehringer Ingelheim International GmbH, priority 2010, dated 2013)

How the values were obtained:
mPGES-1 [1] = target: T1, mPGES-1 (Homo sapiens, UniProt O14684); assay: A549 cell-based assay (PGE2 formation, IL-1β stimulated, 50% human serum); set-up: host or cells: A549 cells; conditions: A549 cells, IL-1β 5 ng/ml, 20-24 h, Table B, read-out: mPGES-1 inhibitory effect, IC50, cell assay
T1 sequence (O14684 1-152): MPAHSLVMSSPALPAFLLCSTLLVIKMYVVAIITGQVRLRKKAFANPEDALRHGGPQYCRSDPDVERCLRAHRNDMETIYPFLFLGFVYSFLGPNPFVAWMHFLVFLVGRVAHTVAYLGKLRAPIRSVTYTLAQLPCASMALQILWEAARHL
Experimental: Although the enzymatic assay is a high throughput assay the disadvantage is that it uses a recombinant protein which is not in its natural environment. Accordingly a cellular assay was established in which a cell line of human origin (A549) expressing the mPGES-1 protein was used. In addition in order to mimic the situation in humans in which compounds can be bound to plasma proteins 50% human serum is added in the assay. By having the combination of testing mPGES-1 in a cellular environment and the presence of 50% human serum this assay has a higher relevance to judge the therapeutic potential of a mPGES-inhibitor than the pure enzyme assay.
A549 cells (ATCC: CCL-185) are grown to about 90% confluence in F-12K Nutrient Mixture (Kaighn's Mod. Gibco) containing 10% FBS in a humified incubator at 37° C. and 5% CO2. Cells were detached using Trypsin-EDTA. A549 cells were seeded in a 384-well collagene plate at a density of 7000 cells/well (50 μl) in F-12 medium containing 1% Penicillin-Streptomycin and 50% human serum. The cells were allowed to attach for 3-4 h. After that the cells were incubated for 20-24 h in F-12k medium supplemented with 50% human serum, 1% Penicillin-Streptomycin and containing IL-1β at a final concentration of 5 ng/ml as well as 10 nM arachidonic acid in the presence of a vehicle or a test compound. The total volume is 100 μl.
Concentrations of PGE2 in the cell free medium (10 μl) were measured using a commercially available HTRF kit from Cisbio (as described above). The PGE2 formation in the absence of test compound was taken as 100%.
IC50 values were derived from at 6-8 point titrations using conventional software.

mPGES-1 [2] = target: T1, mPGES-1; assay: mPGES-1 enzyme assay (HTRF detection of PGE2); format: biochemical; set-up: made in house; host or cells: Rosetta E. coli (membrane/microsome fraction); conditions: recombinant human mPGES-1 microsomes, PGH2 2 μM, Table A; read-out: mPGES-1 inhibitory effect, IC50, enzyme assay
Experimental: Microsomes from Rosetta E. coli bacteria expressing recombinant human mPGES-1 can be derived as described below:
Inoculate 5 ml LB with Ampicilin (50 μg/ml) and Chloramphenicol (34 μg/ml) with bacteria from freeze culture. Incubate 8 h at 37° C. with 200 rpm. Thereafter, inoculate 500-1000 ml LB containing Amp and Chloro with the 5 ml on culture and grow to OD640 of 0.8-1.0. Chill the culture to +4° C. before induction. Induce the culture with IPTG at a final concentration of 400 μM. Express the protein at room temp 18-23° C. with 200 rpm shaking over night.
The following steps can be performed on the following day: • 1. Spin down the cells in 250 ml centrifuge flasks for 15 min at 7000 rpm (Beckmann Coulte Avanti J-E centrifuge) • 2. Dissolve the pellet from 250 ml culture in 12.5 ml homogenization buffer • 3. (15 mM Tris-HCL pH8, 1 mM EDTA pH8, […], 2.5 mM GSH, 1 Tablet Protease inhibitor per 50 ml buffer) • 4. Disintegrate the cells by sonication, 5×10 seconds at 48% amplitude of a 750 W sonifier • 5. Add 2.5 ml MgCl2 (100 mM) and DNase 12.5 μl (0.8 mg/ml) and incubate on ice for 30 min • 6. Spin down the bacteria debris and save the supernatant, 7000 rpm for 15 min • 7. Isolate the protein containing membranes in the supernatant by ultracentrifugation 120000×g for 2 hour at 4° C. (Sorvall T880 rotor). • 8. Discard the supernatant and dissolve the pellet in 20 mM Potassium phosphate buffer pH 7.4 (KH2PO4 and K2HPO4) buffer by sonication (5×10 s, 30% of a 50 W sonifier) and aliquot the enzyme and store aliquots at −80° C.
Before each experiment is performed an aliquot of the enzyme is thawed and it can then be dissolved in 0.1 M Potassium phosphate buffer pH7.4 (KH2PO4 and K2HPO4) buffer containing 2.5 mM GSH.
The aim of this assay is the determine the affinity of a test compound for the mPGES-1 enzyme.
47 μl of recombinant human mPGES-1 (˜0.5 μg protein/well) containing microsomal suspension in a buffer containing GSH, (2.5 mmol/L L-Glutathione reduced, dissolved in 0.1 mol/L Phosphat Buffer pH 7.4) is dispensed in a 384-well plate and thereafter 1 μl of the test compound(s) is/are added and incubated for 25 minutes at room temperature. The enzyme reaction is started by the addition of 2 μl PGH2 (final conc. 2 μM) dissolved in water-free Diglyme. After 60 seconds the reaction is terminated by addition of a stop solution containing FeCl2 (10 μL 0.074 mol/l FeCl2). The samples are diluted between 1:25 in PBS (Phosphate Buffered Saline). 10 μl of the diluted samples are transferred to 384-well low volume plate. In order to quantify the amount of PGE2 that has been formed, a homogenous time resolved fluorescent (HTRF) detecting of PGE2 has been performed using a commercially available kit from Cisbio according to the manufactures recommendation. This HTRF-based assay has been described in detail (see: Goedken et al., J Biomol Screen, 2008, 13(7), 619-625). Briefly, the diluted samples are mixed with 5 μl PGE2-d2 conjungate and 5 μl anti-PGE2 cryptate conjungate. After an incubation period of the plates over night, the fluorescence is measured by the use of an appropriate microplate reader.
The fluorescence of Europium cryptate (maxex=307 nm, maxem=620 nm) and d2-PGE2 (maxex=620 nm, maxem=665 nm) are measured.
The extent of the specific HTRF is measured as a ratio of the emission intensity at 665 nm vs. that at 620 nm at an excitation puls of 320 nm. The quantification plate contains also wells with different concentrations of PGE2 as calibration curve for the calculation of the PGE2 concentrations from the HTRF ratio values.
From all mPGES enzyme assay the background is subtracted and the IC50 is calculated over a nonlinear regression with conventional software.

SMILES | melting point [°C] | IC50 (mPGES-1 [1]) [nM] | IC50 (mPGES-1 [2]) [nM]
Cn1c(Nc2c(Cl)ccc(CNC(=O)C(C)(C)C)c2Cl)nc2cc(C(=O)N[C@H]3CC[C@H](C(F)(F)F)CC3)c(N3CCC(C(F)(F)F)CC3)nc21 [Example 30, N-(trans-4-Trifluoromethyl-cyclohexyl)-2-{2,6-dichloro-3-[(2,2-dimethyl-propionylamino)-methyl]-phenylamino}-5-[4-trifluoromethyl-piperidinyl]-3-methyl-3H-imidazo[4,5-b]pyridine-6-carboxamide] | 185 to 186 | 1 | 3
CC(C)(C)C(=O)NCc1ccc(Cl)c(Nc2nc3cc(C(=O)N[C@H]4CC[C@H](C(F)(F)F)CC4)c(N4CCC(C(F)(F)F)CC4)nc3n2CC(F)F)c1Cl [Example 27] | 172 to 174 | 2 | 3
CC(C)(C)C(=O)NCc1ccc(Cl)c(Nc2nc3cc(C(=O)N[C@H]4CC[C@H](C(F)(F)F)CC4)c(N4CCC(C(F)(F)F)CC4)nc3n2C2CC2)c1Cl [Example 26] | 198 to 200 | 7 | 4
